Where “and” joins values, the source holds several entries; their conditions need not be identical. Equal entries are not always repeated. Where two headings read alike, the source gives them in different places. Where a SMILES comes first, the peptide text is derived from it. [ ]: non-standard residue; d: D form. The star is where a group is joined. ξ: configuration not given here. Ala(6-(2-MePh)pyridin-3-yl) = Cc1ccccc1-c1ccc(C[C@H](N)C(=O)O)cn1; Bip(2'-Et-4'-OMe) = CCc1cc(OC)ccc1-c1ccc(C[C@H](N)C(=O)O)cc1; Lactoyl(3-(imidazol-4-yl)) = O=C([C@@H](O)Cc1c[nH]cn1)*; Bip(2'-Me) = Cc1ccccc1-c1ccc(C[C@H](N)C(=O)O)cc1; ξαMePhe(2-F) = CC(N)(Cc1ccccc1F)C(=O)O; Thr(3ξ) = CC(O)[C@H](N)C(=O)O; ξαMeP = CC1(C(=O)O)CCCN1; Aib = CC(C)(N)C(=O)O
Tests used:
ob/ob mice = experiment: Intraperitoneal glucose tolerance test (ipGTT) in ob/ob mice after sc injection; format: in vivo, mouse; conditions: for Potency in ob/ob mice: % AUC Reduction in Plasma Glucose in an IP Glucose Tolerance Test after SC Injection of Compound: 10 nmol/kg sc, relative to vehicle-treated group; for effect on postprandial plasma insulin / effect on postprandial plasma glucose: sc; for effect on postprandial plasma glucose: 0 to 180 or 210 min; for Potency in ob/ob mice ED50: sc injection, plasma glucose AUC in ipGTT
Description: (§1) Peptides were dissolved in an appropriate vehicle at a concentration in nmol/ml equivalent to the dose that was to be administered in nmol/kg so that each mouse would receive the same volume/weight of dosing solution. Male C57BL/6-ob/ob mice (10 weeks old) were randomized into groups of 6 mice per group based on fed plasma glucose and body weight. After an overnight fast, mice were weighed and placed in the experimental lab. After 30 min in the environment, the mice were bled via tail tip at −30 min and immediately injected subcutaneously (sc) with vehicle or the peptide dissolved in vehicle (0.1 ml solution/100 g body weight). At time 0 the mice were bled and then injected intraperitoneally with 50% glucose (2 g/kg) to initiate the intraperitoneal glucose tolerance test (ipGTT). The mice were bled 30, 60, 120 and 180 min after the glucose injection. Blood samples were drawn into potassium EDTA, placed on ice during the study and subsequently centrifuged for 10 min at 3000 rpm at 4° C. Plasma samples were diluted 11-fold for glucose analysis in the Cobas System. Another 5 μl plasma sample was diluted 5-fold with 20 μl of Sample Diluent (Insulin ELISA assay kit, Crystal Chem. Inc.) and stored at −20° C. for subsequent analysis using the Ultra Sensitive Mouse Insulin ELISA kit (Crystal Chem Inc.).

[1] = Exposure during ipGTT in ob/ob mice; format: in vivo, mouse; conditions: sc injection
Description: as §1

[2] = Dog pharmacokinetic study; format: in vivo; conditions: for half-life: read-out: t½ (converted)
Description: The pharmacokinetic parameters of the Compounds of SEQ ID NO: 9, 118, 151 and 158 were determined in male beagle dogs (n=3-4, 14±1 kg). Following an overnight fast, each animal received the Compounds of SEQ ID NO: 9, 118, 151 and 158 either as an intravenous bolus via femoral vein (67 μg/kg) or by subcutaneous injection given at near the shoulder blades (67 μg/kg). Each animal received both intravenous and subcutaneous doses with a one-week washout between doses following a crossover design. The dosing vehicle for both routes of administration was propylene glycol:pH 7.4 phosphate buffer (50:50) or 0.2 M Tris (pH 8.0). Serial blood samples were collected in EDTA-containing microcentrifuge tubes at predose, 0.083, 0.25, 0.5, 0.75, 1, 2, 4, 6, 8, 24, and 30 hours post-dose after intravenous administration; at predose, 0.25, 0.5, 0.75, 1, 2, 4, 6, 8, 24, and 30 hours post-dose after subcutaneous administration. Approximately 0.3 mL of blood was collected at each time point. Blood samples were immediately centrifuged at 4° C. The obtained plasma was frozen with dry ice and stored at −20° C. Plasma drug levels were determined using the LC-MS/MS assay described below.
Plasma samples from the in vivo dog study were prepared for analysis by precipitating plasma proteins with two volumes of AcCN containing an internal standard. The samples were vortex mixed and the precipitated proteins were removed by centrifugation. The resulting supernatants were transferred to a 96-well plate and 10 μL were injected for TFC-LC/MS/MS analysis.
The TFC-HPLC system (Cohesive TX-1 Flux, Aria 2300 System) consisted of a loading pump, an eluting pump, and a CTC PAL autosampler (Cohesive Technologies, Franklin, Mass.). The columns used were Phenomenex Synergi Fusion-RP (C18, 2.0×50 mm, 4μ) (Phenomenex, Torrance, Calif.) as the analytical column and Turbo-Flow (TF) HTLC Cyclone column (0.5×50 mm) (Cohesive Technologies, Franklin, Mass.) as the extraction column for on-line sample processing. The mobile phase A consisted of 10 mM ammonium formate and 0.1% formic acid in water and mobile phase B consisted of 0.1% formic acid in AcCN. Turbo-Flow Chromatography was used to obtain a cleaner sample. A rapid gradient elution was used for analyte separation. The samples were injected onto the Turbo-Flow HTLC Cyclone column and analytes were separated from biological fluid components with using 100% H2O at 1.5 mL/min. The TF column was back flushed and analytes were back eluted from the TF to HPLC analytical column using a ramp to 60% B over 2 min and held there for 30 seconds at 0.3 mL/min to separate and to elute the analytes from the HPLC column into the mass spectrometer. Both columns were washed for an additional minute and then both columns were re-equilibrated at initial conditions.
The HPLC was interfaced to a Sciex API 4000 mass spectrometer (Applied Biosystems, Foster City, Calif.) and was equipped with a TurboIonspray ionization source. Ultra high purity nitrogen was used as the nebulizing and turbo-gas. The temperature of turbo-gas was set at 300° C. and the interface heater was set at 60° C. Selected Reaction Monitoring (SRM) was used for data acquisition. Multiple charged ion species, i.e. (M+2H)^2+ for Compound of SEQ ID NO: 158 were selected in Q1 and were collisionally dissociated with high purity nitrogen at a pressure of 3.5×10^−3 torr in Q2 to form specific product ions which were subsequently monitored in Q3. The ion transitions and voltages are summarized below (Table 4).
The standard curve concentrations, ranging from 1 to 1000 nM, were analyzed in duplicate. The curves were fitted with a linear regression weighted by reciprocal concentration […]. Quality control (QC) samples, prepared in blank matrix at the same concentrations as the standards were also analyzed in each analytical set. […]

[3] = vehicle propylene glycol/pH 7.4 phosphate buffer (1:1)
[4] = 30 nmol/kg sc, ipGTT ob/ob mice
[5] = dog, plasma, 67 ug/kg, male beagle dogs, intravenous 67 μg/kg
[6] = dog, plasma, sc, 67 ug/kg, male beagle dogs, subcutaneous 67 μg/kg
[7] = vehicle 0.2 M Tris buffer (pH 8.0)

Exposure/dose during ipGTT in ob/ob mice [1]	Exposure in dogs (sc@67 μg/kg) [2, 3]	Exposure in dogs (sc@67 μg/kg) [2, 7]	SMILES	Potency in ob/ob mice: % AUC Reduction in Plasma Glucose in an IP Glucose Tolerance Test after SC Injection of Compound (ob/ob mice)	effect on postprandial plasma insulin (ob/ob mice; ipGTT ob/ob mice)	effect on postprandial plasma glucose (ob/ob mice; ipGTT ob/ob mice)	Potency in ob/ob mice ED50 (ob/ob mice)	other results
22 nM * h/nmol/kg	0.089 µM·h	–	CCc1cc(OC)ccc1-c1ccc(C[C@H](NC(=O)[C@H](CC(=O)O)NC(=O)[C@H](CO)NC(=O)[C@@H](NC(=O)C(C)(Cc2ccccc2F)NC(=O)[C@@H](NC(=O)CNC(=O)[C@H](CCC(=O)O)NC(=O)C(C)(C)NC(=O)[C@@H](N)Cc2c[nH]cn2)C(C)O)C(C)O)C(=O)N[C@@H](Cc2ccc(-c3ccccc3C)cc2)C(N)=O)cc1 (stereo partly drawn) [Compound I, reference compound] (H-H[Aib]EG[Thr(3ξ)][ξαMePhe(2-F)][Thr(3ξ)]SD[Bip(2'-Et-4'-OMe)][Bip(2'-Me)]-NH2)	−15% (p = 0.247, NS)	statistically significant dose-dependent increase	decreasing in a dose-dependent manner	–	–
18 nM * h/nmol/kg	1.23 µM·h	0.452 µM·h	CCc1cc(OC)ccc1-c1ccc(C[C@H](NC(=O)[C@H](CC(=O)O)NC(=O)[C@H](CO)NC(=O)[C@@H](NC(=O)C(C)(Cc2ccccc2F)NC(=O)[C@@H](NC(=O)CNC(=O)[C@H](CCC(=O)O)NC(=O)C(C)(C)NC(=O)[C@@H](N)Cc2c[nH]cn2)C(C)O)C(C)O)C(=O)N[C@@H](Cc2ccc(-c3ccccc3C)nc2)C(N)=O)cc1 (stereo partly drawn) [SEQ ID NO: 9] (H-H[Aib]EG[Thr(3ξ)][ξαMePhe(2-F)][Thr(3ξ)]SD[Bip(2'-Et-4'-OMe)][Ala(6-(2-MePh)pyridin-3-yl)]-NH2)	−68% (p < 0.0001)	significant increase	statistically significant decrease	5 nmol/kg	maximum increase in postprandial plasma insulin AUC (ob/ob mice; [4]): 187.7%; plasma glucose AUC decreased (ob/ob mice; 100 nmol/kg sc, ipGTT ob/ob mice): 85.8%; Potency in ob/ob mice ED50 (ob/ob mice; listed as 9): ED50 = 5 nmoles/kg; AUC [2, 5]: 0.529 ± 0.125 µM·h; MRT [2, 5]: 2.4 ± 0.5 h; clearance ([2]; dog, plasma, 67 ug/kg, male beagle dogs, intravenous 67 μg/kg, read-out: CLp): 1.4 ± 0.4 mL/min/kg; Vd ([2]; dog, plasma, 67 ug/kg, male beagle dogs, intravenous 67 μg/kg, read-out: Vss): 0.21 ± 0.07 L/kg; half-life [2, 5]: 7.1 ± 2.1 h; AUC [2, 6]: 0.452 ± 0.153 µM·h; Cmax [2, 6]: 116 ± 34 nM; MRT [2, 6]: 3.6 ± 1 h; Tmax [2, 6]: 1.1 ± 0.6 h; half-life [2, 6]: 2.6 ± 1.2 h; bioavailability ([2]; dog, plasma, male beagle dogs, subcutaneous 67 μg/kg vs intravenous): 93 ± 22%
4.4 nM * h/nmol/kg	4.02 µM·h	–	CCc1cc(OC)ccc1-c1ccc(C[C@H](NC(=O)[C@H](CC(=O)O)NC(=O)[C@H](CO)NC(=O)[C@@H](NC(=O)C(C)(Cc2ccccc2F)NC(=O)[C@@H](NC(=O)CNC(=O)[C@H](CCC(=O)O)NC(=O)C2(C)CCCN2C(=O)[C@@H](N)Cc2c[nH]cn2)[C@@H](C)O)[C@@H](C)O)C(=O)N[C@@H](Cc2ccc(-c3ccccc3C)nc2)C(N)=O)cc1 (stereo partly drawn) [SEQ ID NO: 118] (H-H[ξαMeP]EGT[ξαMePhe(2-F)]TSD[Bip(2'-Et-4'-OMe)][Ala(6-(2-MePh)pyridin-3-yl)]-NH2)	−70% (p < 0.001)	–	statistically significant decrease	2.5 nmol/kg	plasma glucose AUC decreased (ob/ob mice; [4]): 81%; Potency in ob/ob mice ED50 (ob/ob mice; listed as 118): ED50 = 2.5 nmoles/kg
16 nM * h/nmol/kg	–	1.566 µM·h	CCc1cc(OC)ccc1-c1ccc(C[C@H](NC(=O)[C@H](CC(=O)O)NC(=O)[C@H](Cc2c[nH]cn2)NC(=O)[C@@H](NC(=O)C(C)(Cc2ccccc2F)NC(=O)[C@@H](NC(=O)CNC(=O)[C@H](CCC(=O)O)NC(=O)C2(C)CCCN2C(=O)[C@@H](O)Cc2c[nH]cn2)[C@@H](C)O)[C@@H](C)O)C(=O)N[C@@H](Cc2ccc(-c3ccccc3C)nc2)C(N)=O)cc1 (stereo partly drawn) [SEQ ID NO: 151] ({Lactoyl(3-(imidazol-4-yl))}-[ξαMeP]EGT[ξαMePhe(2-F)]THD[Bip(2'-Et-4'-OMe)][Ala(6-(2-MePh)pyridin-3-yl)]-NH2)	–	–	statistically significant decrease	1 nmol/kg and 2 nmol/kg	plasma glucose AUC decreased (ob/ob mice; 3 nmol/kg sc, ipGTT ob/ob mice): 67%; Potency in ob/ob mice ED50 (ob/ob mice; listed as 151): ED50 = 1 nmoles/kg

From US7960349B2 (Bristol-Myers Squibb Company, priority 2006, dated 2011)
